ChEMBL document CHEMBL3885881, “DrugMatrix”

Species on record: Rattus norvegicus
Experiment: DrugMatrix - Regimen: Daily Repeat
Format: toxicity, organism-based, Sprague-Dawley
Design: regimen Daily Repeat, gender Male, age 6-8 weeks
Settings: in vivo, po, route oral GAVAGE, […]; for ABSOLUTE BASOPHIL / ABSOLUTE EOSINOPHIL / ABSOLUTE LYMPHOCYTE / ABSOLUTE MONOCYTE / ABSOLUTE SEGMENTED NEUTROPHIL / BASOPHIL / EOSINOPHIL / ERYTHROCYTE COUNT / HEMATOCRIT / HEMOGLOBIN / LEUKOCYTE COUNT / LYMPHOCYTE / MEAN CORPUSCULAR HEMOGLOBIN / MEAN CORPUSCULAR HEMOGLOBIN CONCENTRATION / MEAN CORPUSCULAR VOLUME / MONOCYTE / NEUTROPHIL / NUCLEATED RED BLOOD CELLS / PLATELET COUNT: tissue Blood; for ALANINE AMINOTRANSFERASE / ALBUMIN / ALKALINE PHOSPHATASE / ASPARTATE AMINOTRANSFERASE / BLOOD UREA NITROGEN / CARBON DIOXIDE / CHLORIDE / CHOLESTEROL / CREATINE PHOSPHOKINASE / CREATININE / GLUCOSE / LACTATE DEHYDROGENASE / LIPASE / PHOSPHORUS / POTASSIUM / SODIUM / TOTAL BILIRUBIN / TOTAL PROTEIN / URIC ACID: tissue Plasma
[1] = 24 mg/kg, 72 h, dose level Low, time 3 day
[2] = 24 mg/kg, 120 h, dose level Low, time 5 day
[3] = 770 mg/kg, 72 h, dose level High, time 3 day
[4] = 770 mg/kg, 120 h, dose level High, time 5 day

COc1c(N2CCNC(C)C2)c(F)cc2c(=O)c(C(=O)O)cn(C3CC3)c12 (configuration not stated) [GATIFLOXACIN]
ABSOLUTE BASOPHIL [1]: 0 CELLS/uL
ABSOLUTE EOSINOPHIL [1]: 38.67 CELLS/uL
ABSOLUTE LYMPHOCYTE [1]: 12036 CELLS/uL
ABSOLUTE MONOCYTE [1]: 222.67 CELLS/uL
ABSOLUTE SEGMENTED NEUTROPHIL [1]: 769.33 CELLS/uL
BASOPHIL [1]: 0%
EOSINOPHIL [1]: 0.33%
ERYTHROCYTE COUNT [1]: 5.26 x10E6/uL
HEMATOCRIT [1]: 34.07%
HEMOGLOBIN [1]: 13.73 G/DL
LEUKOCYTE COUNT [1]: 13.07 x10E3/uL
LYMPHOCYTE [1]: 92%
MEAN CORPUSCULAR HEMOGLOBIN [1]: 26.17 pg
MEAN CORPUSCULAR HEMOGLOBIN CONCENTRATION [1]: 40.3 G/DL
MEAN CORPUSCULAR VOLUME [1]: 64.87 fL
MONOCYTE [1]: 1.67%
NEUTROPHIL [1]: 6%
NUCLEATED RED BLOOD CELLS [1]: 0 /100WBC
PLATELET COUNT [1]: 1216.33 x10E3/uL
ALANINE AMINOTRANSFERASE [1]: 96.67 u/L
ALBUMIN [1]: 4.1 G/DL
ALKALINE PHOSPHATASE [1]: 435.33 u/L
ASPARTATE AMINOTRANSFERASE [1]: 106.67 u/L
BLOOD UREA NITROGEN [1]: 15 mg/dL
CARBON DIOXIDE [1]: 24.67 mmol/L
CHLORIDE [1]: 100.67 MEQ/L
CHOLESTEROL [1]: 75 mg/dL
CREATINE PHOSPHOKINASE [1]: 818.33 u/L
CREATININE [1]: 0.2 mg/dL
GLUCOSE [1]: 183 mg/dL
LACTATE DEHYDROGENASE [1]: 221.67 u/L
LIPASE [1]: 10.33 u/L
PHOSPHORUS [1]: 13.13 mg/dL
POTASSIUM [1]: 6.33 MEQ/L
SODIUM [1]: 143.27 MEQ/L
TOTAL BILIRUBIN [1]: 0.17 mg/dL
TOTAL PROTEIN [1]: 5.77 G/DL
URIC ACID [1]: 1.7 mg/dL
ABSOLUTE BASOPHIL [2]: 0 CELLS/uL
ABSOLUTE EOSINOPHIL [2]: 0 CELLS/uL
ABSOLUTE LYMPHOCYTE [2]: 16055.67 CELLS/uL
ABSOLUTE MONOCYTE [2]: 361 CELLS/uL
ABSOLUTE SEGMENTED NEUTROPHIL [2]: 1450 CELLS/uL
BASOPHIL [2]: 0%
EOSINOPHIL [2]: 0%
ERYTHROCYTE COUNT [2]: 5.93 x10E6/uL
HEMATOCRIT [2]: 37%
HEMOGLOBIN [2]: 14.63 G/DL
LEUKOCYTE COUNT [2]: 17.87 x10E3/uL
LYMPHOCYTE [2]: 90%
MEAN CORPUSCULAR HEMOGLOBIN [2]: 24.73 pg
MEAN CORPUSCULAR HEMOGLOBIN CONCENTRATION [2]: 39.57 G/DL
MEAN CORPUSCULAR VOLUME [2]: 62.47 fL
MONOCYTE [2]: 2%
NEUTROPHIL [2]: 8%
NUCLEATED RED BLOOD CELLS [2]: 0 /100WBC
PLATELET COUNT [2]: 1096 x10E3/uL
ALANINE AMINOTRANSFERASE [2]: 69 u/L
ALBUMIN [2]: 4.2 G/DL
ALKALINE PHOSPHATASE [2]: 431.33 u/L
ASPARTATE AMINOTRANSFERASE [2]: 90.67 u/L
BLOOD UREA NITROGEN [2]: 13 mg/dL
CARBON DIOXIDE [2]: 27.67 mmol/L
CHLORIDE [2]: 100.67 MEQ/L
CHOLESTEROL [2]: 70.67 mg/dL
CREATINE PHOSPHOKINASE [2]: 342 u/L
CREATININE [2]: 0.2 mg/dL
GLUCOSE [2]: 149.33 mg/dL
LACTATE DEHYDROGENASE [2]: 413 u/L
LIPASE [2]: 10.33 u/L
PHOSPHORUS [2]: 11.8 mg/dL
POTASSIUM [2]: 5.99 MEQ/L
SODIUM [2]: 145.2 MEQ/L
TOTAL BILIRUBIN [2]: 0.2 mg/dL
TOTAL PROTEIN [2]: 5.97 G/DL
URIC ACID [2]: 1.43 mg/dL
ABSOLUTE BASOPHIL [3]: 0 CELLS/uL
ABSOLUTE EOSINOPHIL [3]: 0 CELLS/uL
ABSOLUTE LYMPHOCYTE [3]: 12067.33 CELLS/uL
ABSOLUTE MONOCYTE [3]: 215.33 CELLS/uL
ABSOLUTE SEGMENTED NEUTROPHIL [3]: 450.67 CELLS/uL
BASOPHIL [3]: 0%
EOSINOPHIL [3]: 0%
ERYTHROCYTE COUNT [3]: 6.18 x10E6/uL
HEMATOCRIT [3]: 38.03%
HEMOGLOBIN [3]: 15.1 G/DL
LEUKOCYTE COUNT [3]: 12.73 x10E3/uL
LYMPHOCYTE [3]: 94.67%
MEAN CORPUSCULAR HEMOGLOBIN [3]: 24.5 pg
MEAN CORPUSCULAR HEMOGLOBIN CONCENTRATION [3]: 39.83 G/DL
MEAN CORPUSCULAR VOLUME [3]: 61.5 fL
MONOCYTE [3]: 1.67%
NEUTROPHIL [3]: 3.67%
NUCLEATED RED BLOOD CELLS [3]: 0 /100WBC
PLATELET COUNT [3]: 1233.67 x10E3/uL
ALANINE AMINOTRANSFERASE [3]: 57 u/L
ALBUMIN [3]: 4.07 G/DL
ALKALINE PHOSPHATASE [3]: 327 u/L
ASPARTATE AMINOTRANSFERASE [3]: 64.33 u/L
BLOOD UREA NITROGEN [3]: 11 mg/dL
CARBON DIOXIDE [3]: 24.33 mmol/L
CHLORIDE [3]: 103.67 MEQ/L
CHOLESTEROL [3]: 37 mg/dL
CREATINE PHOSPHOKINASE [3]: 603.67 u/L
CREATININE [3]: 0.29 mg/dL
GLUCOSE [3]: 368.33 mg/dL
LACTATE DEHYDROGENASE [3]: 191.67 u/L
LIPASE [3]: 8.67 u/L
PHOSPHORUS [3]: 12.53 mg/dL
POTASSIUM [3]: 6.44 MEQ/L
SODIUM [3]: 143.43 MEQ/L
TOTAL BILIRUBIN [3]: 0.13 mg/dL
TOTAL PROTEIN [3]: 5.6 G/DL
URIC ACID [3]: 2.13 mg/dL
ABSOLUTE BASOPHIL [4]: 0 CELLS/uL
ABSOLUTE EOSINOPHIL [4]: 57.33 CELLS/uL
ABSOLUTE LYMPHOCYTE [4]: 15898 CELLS/uL
ABSOLUTE MONOCYTE [4]: 55 CELLS/uL
ABSOLUTE SEGMENTED NEUTROPHIL [4]: 1089.67 CELLS/uL
BASOPHIL [4]: 0%
EOSINOPHIL [4]: 0.33%
ERYTHROCYTE COUNT [4]: 6.68 x10E6/uL
HEMATOCRIT [4]: 41.6%
HEMOGLOBIN [4]: 16.5 G/DL
LEUKOCYTE COUNT [4]: 17.1 x10E3/uL
LYMPHOCYTE [4]: 93%
MEAN CORPUSCULAR HEMOGLOBIN [4]: 24.7 pg
MEAN CORPUSCULAR HEMOGLOBIN CONCENTRATION [4]: 39.67 G/DL
MEAN CORPUSCULAR VOLUME [4]: 62.27 fL
MONOCYTE [4]: 0.33%
NEUTROPHIL [4]: 6.33%
NUCLEATED RED BLOOD CELLS [4]: 0 /100WBC
PLATELET COUNT [4]: 1161 x10E3/uL
ALANINE AMINOTRANSFERASE [4]: 71 u/L
ALBUMIN [4]: 4 G/DL
ALKALINE PHOSPHATASE [4]: 300.33 u/L
ASPARTATE AMINOTRANSFERASE [4]: 74.33 u/L
BLOOD UREA NITROGEN [4]: 12.33 mg/dL
CARBON DIOXIDE [4]: 26.67 mmol/L
CHLORIDE [4]: 99.67 MEQ/L
CHOLESTEROL [4]: 30.67 mg/dL
CREATINE PHOSPHOKINASE [4]: 501.33 u/L
CREATININE [4]: 0.29 mg/dL
GLUCOSE [4]: 338.33 mg/dL
LACTATE DEHYDROGENASE [4]: 199 u/L
LIPASE [4]: 8.67 u/L
PHOSPHORUS [4]: 11.53 mg/dL
POTASSIUM [4]: 6.37 MEQ/L
SODIUM [4]: 141.3 MEQ/L
TOTAL BILIRUBIN [4]: 0.2 mg/dL
TOTAL PROTEIN [4]: 5.53 G/DL
URIC ACID [4]: 2.07 mg/dL
